Experimental findings from patent US11530216B2, “Deuterated colony stimulating factor-1 receptor (CSF-1R) inhibitors” (Genzyme Corporation, priority 2020, dated 2022) are described below.

Series [1] is described as follows: Rat hepatocyte intrinsic clearance. The note with it: 1 μM, 0.5 million cells/mL. Type of series: in vitro ADME. The protocol: (§1) Incubations were performed in 0.5 million hepatocytes cells/mL at 1 μM concentration of test compound in duplicate with rat, human, dog, monkey, or mouse hepatocytes, and the concentration-time course of test compound depletion was determined after withdrawing samples from the incubation at assay time points followed by liquid chromatography with tandem mass spectrometry analysis. An organic solvent was used to terminate incubations.

Series [2] in a line: Monkey hepatocyte intrinsic clearance. The class given is in vitro ADME. To be noted: 1 μM, 0.5 million cells/mL. The protocol: as §1
Series [3] has as its target CYP2D6 (Homo sapiens (Human), UniProt P10635). The series can be described thus: CYP inhibition in human liver microsomes, CYP2D6. Type of series: in vitro ADME. The note with it: dextromethorphan 10 μM, 30 min, read-out: CYP inhibition mean IC50 (INH) isoform: CYP2D6 Substrate: dextromethorphan. As for the experimental part: (§2) The objective of this assay method was to determine the inhibitory potential of test articles, in vitro, against specific cytochrome P450 (CYP) enzymes, using human liver microsomes (HLMs). The test compounds were diluted from pure DMSO stocks to a final test concentration range of 10 μM-0.07 μM in a 0.5% DMSO solution. […] After incubation, the samples were extracted, and protein precipitated in acetonitrile containing 0.1% formic acid. The samples were centrifuged to remove excess protein, and were analyzed by LDTD/MS/MS to determine IC50 values. Key concentrations of substrates were as follows: CYP2D6 Substrate—Dextromethorphan at 10 μM. CYP3A4 Substrates—Testosterone at 60 μM, and Midazolam at 2 μM. Dextromethorphan and testosterone were incubated with the test compounds for 30 minutes each. Midazolam was incubated with the test compounds for 10 minutes.

For series [4], the system named is MCP-1 production in BV2 murine microglial cells. The series can be described thus: MCP-1 ELISA, BV2 microglial cells after CSF-1 stimulation. Type of series: cell-based. The note with it: Mus musculus, BV-2, 30 min pre-treatment, 100 ng/mL M-CSF 24 hours. As for the experimental part:
Microglia cells were allowed to rest overnight at 37° C., 5% CO2. […] After stimulation, the culture supernatant was removed from each well and aliquoted into two different 96-well plates for subsequent ELISA assays.
In general terms: ELISA stands for enzyme-linked immunosorbent assay.

Series [5] can be described thus: Human liver S-9 intrinsic clearance. The class given is in vitro ADME. To be noted: human; for CLint scaled at 1 μM: s9. The protocol:
Incubations were performed in 1 mg/mL human liver cytosol with high aldehyde oxidase (AO)/xanthine oxidase (XO) activity or 2.5 mg/mL human liver S-9 fraction with high AO/XO activity at 1 μM concentration of test compound in duplicate, and the concentration-time course of test compound depletion was determined after withdrawing samples from the incubation at assay time points followed by liquid chromatography with tandem mass spectrometry analysis. An organic solvent was used to terminate incubations.
(§3) These available known AO substrates along with the test compounds were analyzed using three in vitro systems (pooled human liver cytosol, liver S-9 fractions and human hepatocytes isolated from livers perfused with HTK media). Scaled unbound intrinsic clearances were calculated for the test compounds/new chemical entities and were compared to the in vivo unbound intrinsic clearances of the known AO substrates.

Series [6] is described as follows: Caco-2 efflux assay. The class given is in vitro ADME. To be noted: human. As for the experimental part:
Caco-2 permeability and efflux assays were performed in cell-based permeability model using Caco-2/TC7 cells. For permeability assays, Caco-2/TC7 cells were seeded on to Millipore Millicell 96 and for efflux assays, 24-well plates were used. The plates with cells were ready to use between 21-25 days of culturing. Both permeability and efflux assays were performed using the TECAN automated liquid handling platform. For permeability assays, test compounds were prepared at 20 μM test concentrations in permeability assay buffer (10 mM HEPES in HBSS buffer, pH 6.5) containing 0.5% BSA. Basolateral permeability buffer (pH 7.4) contains 5% BSA. For efflux assays, test compounds were prepared at 1 μM test concentrations in permeability assay buffer (10 mM HEPES in HBSS buffer, pH 7.4) containing 0.5% BSA. For efflux assays, the basolateral permeability buffer (pH 7.4) contained 0.5% BSA. The permeability assay was initiated by adding 20 μM test solution to apical side of plate containing Caco-2/TC7 cells. In the efflux assay, 1 μM test compound was added to an apical compartment for apical to basolateral (A to B) permeability determination. For basolateral to apical (B to A) permeability determination, the test compound was added to the basolateral side. The plate was incubated for 90 min under constant shaking at 37° C. At the end of the incubation period, samples taken were analyzed using high pressure liquid chromatography with tandem mass spectrometry. For each assay, apparent permeability (Papp) and recovery was calculated from mass spectrometry data. For permeability assay, Papp values are reported as numbers×10^−07 cm/s. For efflux assays, the efflux ratio is calculated using Papp (basolateral to apical) to Papp (apical to basolateral), in addition to recovery values.

Series [7] can be described thus: Metabolite profiles in human cryopreserved hepatocytes in absence and presence of AO inhibitor hydralazine. Type of series: in vitro ADME. The note with it: 2 hours; for % of Total (integrated MS peak areas), Human Hepatocytes: absence of hydralazine; for % of Total (integrated MS peak areas), Human Hepatocytes + Hydralazine: hydralazine 10 μM. As for the experimental part:
After study sampling, the remaining samples from triplicate incubations were combined and processed for the metabolite identification study.
To each sample was added equal amounts of ice-cold acetonitrile (v/v) and the samples were then vortex mixed. Following centrifugation at approximately 13,000 rpm for 10 minutes, the supernatants were concentrated under nitrogen flow at 35° C. until approximately 0.1-0.2 mL of extract remained. Prior to analysis, the remaining extract was centrifuged at approximately 13,000 rpm for 15 minutes. The supernatant was injected into LC/UV/MS for analysis.
Metabolite identification was performed on UPLC (Thermo Vanquish) coupled with UV (Thermo Vanquish) and mass spectrometry (MS) detection (Thermo Orbitrap ID-X).
The mass peak areas were used for metabolite profiling, due to low sample concentrations. […] Metabolites having a peak area that accounts for equal to or more than 0.1% of the toral integrated MS peaks areas are reported in Table 1 below.
The metabolites are characterized based on their accurate masses (tolerance ≤5 ppm), mass fragmentation patterns, and comparison with other in vitro studies.
After study sampling, the remaining samples from triplicate incubations were combined and processed for metabolite identification study.
To each sample was added equal amounts of ice-cold acetonitrile (v/v) and the samples were vortex mixed. Following centrifugation at approximately 13,000 rpm for 10 minutes, the supernatants was concentrated under nitrogen flow at 35° C. until approximately 0.1-0.2 mL of extract remained. Prior to analysis, the remaining extract was centrifuged at approximately 13,000 rpm for 15 minutes. The supernatant was injected into LC/UV/MS for analysis.
The mass peak areas are used for metabolite profiling, due to low sample concentrations. […] Metabolites having a peak area that accounts for equal to or more than 0.1% of the toral integrated MS peaks areas are reported in Table 2 below.
The metabolites are characterized based on their accurate masses (tolerance≤5 ppm), mass fragmentation patterns, and comparison with other in vitro studies.

The target in series [8] is CYP3A4 (Homo sapiens (Human), UniProt P08684). The series can be described thus: CYP inhibition in human liver microsomes, CYP3A4. Type of series: in vitro ADME. As for the experimental part:
as §2

Series [9] can be described thus: Human hepatocyte intrinsic clearance. To be noted: human, hepatocytes. The class given is in vitro ADME. As for the experimental part:
as §1, §3

Setting [10] is: s9, Human Liver S-9 Intrinsic Clearance _1.
Where [11] appears, read: s9, Human Liver S-9 Intrinsic Clearance _2.
The mark [12] stands for this setting: midazolam 2 μM, 10 min, read-out: CYP inhibition mean IC50 (INH) Isoform: CYP3A4 Substrate: midazolam.
[13] abbreviates: testosterone 60 μM, 30 min, read-out: CYP inhibition mean IC50 (INH) Isoform: CYP3A4 Substrate: testosterone.
Where [14] appears, read: incubation of Compound 24, 1 μM.

Each structure is given as a SMILES string. Where two headings read alike, the source gives them in different places. Bounds are passed on as bounds.

CYP3A4, sequence (P08684 whole entry): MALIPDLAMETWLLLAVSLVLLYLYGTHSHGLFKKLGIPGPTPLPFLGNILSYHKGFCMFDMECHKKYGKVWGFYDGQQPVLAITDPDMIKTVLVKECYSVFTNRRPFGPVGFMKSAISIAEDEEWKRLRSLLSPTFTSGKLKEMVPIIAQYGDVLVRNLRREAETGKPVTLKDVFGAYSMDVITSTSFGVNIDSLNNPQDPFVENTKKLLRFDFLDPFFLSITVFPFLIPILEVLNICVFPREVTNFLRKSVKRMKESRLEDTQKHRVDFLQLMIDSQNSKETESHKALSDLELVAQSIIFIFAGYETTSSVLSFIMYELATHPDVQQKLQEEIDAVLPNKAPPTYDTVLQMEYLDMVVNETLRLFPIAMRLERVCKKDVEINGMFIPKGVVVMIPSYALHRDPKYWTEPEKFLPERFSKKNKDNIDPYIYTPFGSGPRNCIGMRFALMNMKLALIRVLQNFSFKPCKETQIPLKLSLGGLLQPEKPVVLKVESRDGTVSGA
CYP2D6, sequence (P10635 whole entry, canonical isoform): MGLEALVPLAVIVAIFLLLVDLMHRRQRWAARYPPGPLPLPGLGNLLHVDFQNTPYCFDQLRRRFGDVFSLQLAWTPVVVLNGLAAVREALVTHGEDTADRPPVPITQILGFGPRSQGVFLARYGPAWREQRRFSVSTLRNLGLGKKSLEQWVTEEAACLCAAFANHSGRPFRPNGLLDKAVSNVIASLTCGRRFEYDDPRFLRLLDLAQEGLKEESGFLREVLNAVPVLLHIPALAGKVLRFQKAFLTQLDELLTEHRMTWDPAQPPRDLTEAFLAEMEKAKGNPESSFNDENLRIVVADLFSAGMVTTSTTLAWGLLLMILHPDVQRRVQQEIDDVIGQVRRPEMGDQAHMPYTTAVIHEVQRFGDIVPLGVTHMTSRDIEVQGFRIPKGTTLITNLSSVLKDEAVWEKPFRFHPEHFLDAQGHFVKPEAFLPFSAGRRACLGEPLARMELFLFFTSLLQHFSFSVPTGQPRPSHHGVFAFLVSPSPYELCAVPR

The term IC50 denotes the concentration that gives 50% inhibition. One may read the CLint scaled as the capacity of the preparation to metabolise the compound, expressed as a volume cleared per time. As usually defined, the microsomal CLint is the capacity of the preparation to metabolise the compound, expressed as a volume cleared per time. For orientation: Papp A→B means how fast a substance crosses the layer from the apical side. One may read the Papp B→A as the apparent permeability from the basolateral to the apical side of a cell layer. What is called hepatocyte CLint is a measure of how fast metabolising enzymes remove a compound, apart from limits set by blood flow. For the compound `[2H]c1nc2cccnc2n1Cc1cc(OC)c2c(c1)O[C@@H](C)[C@H](c1ccc(OC)nc1)O2` [Compound 6, 3-(((2S,3S)-8-methoxy-2-(6-methoxypyridin-3-yl)-3-methyl-2,3-dihydrobenzo[b][1,4]dioxin-6-yl)methyl)-3H-imidazo[4,5-b]pyridine-2-d], the “Rat Hepatocyte Intrinsic Clearance” value in series [1] is reported as 9.00 μL/min/10^7 cells. In addition, the “Monkey Hepatocyte Intrinsic Clearance” value in series [2] was found to be 27.2 μL/min/10^7 cells. The half-inhibitory concentration (IC50) is more than 10 µM in series [3], 0.0288 to 0.0365 µM in series [4], more than 10 µM in [8] (setting [12]) and more than 10 µM in series [8] (setting [13]). Besides, the CLint scaled at 1 μM in [5] came to 3.6 mL/min/kg; in series [9], 20 mL/min/kg. Also, the microsomal CLint at 1 μM in series [5] (setting [10]) and in series [5] (setting [11]) was less than 1.1 µL/min/mg throughout. The same compound yielded a Papp A→B at 90 min, 1 μM in series [6] of 13.5 ×10⁻⁶ cm/s. This compound gave an apparent permeability from basolateral to apical (Papp B→A) at 90 min, 1 μM in series [6] of 29.2 ×10⁻⁶ cm/s. Further, the recovery at 90 min, 1 μM amounted to 88% in series [6] (read-out: Recovery A to B) and 82.5% in series [6] (read-out: Recovery B to A). Moreover, the “% of Total (integrated MS peak areas), Human Hepatocytes” value in series [7] (incubation of Compound 6, 1 μM) stood at 87.1%. For the same compound, the “% of Total (integrated MS peak areas), Human Hepatocytes + Hydralazine” value in series [7] (incubation of Compound 6, 1 μM) is listed as 92.0%. For the same compound, the hepatocyte CLint at 1 μM in [9] is 7.88 µL/min/1e6 cells.

As to `COc1ccc(C2Oc3c(OC)cc(Cn4cnc5cccnc54)cc3O[C@H]2C)cn1` (stereo partly shown) [Compound 24], in series [1], the “Rat Hepatocyte Intrinsic Clearance” value was determined as 8.72 μL/min/10^7 cells. In addition, in series [2], the “Monkey Hepatocyte Intrinsic Clearance” value is recorded as more than 92 μL/min/10^7 cells. The IC50 in [3] was more than 10 µM; in [4] it was 0.0288 to 0.0365 µM; in [8] (setting [12]), more than 10 µM; in series [8] (setting [13]) it was more than 10 µM. The results for the CLint scaled at 1 μM in series [5] and in series [9] were 9 mL/min/kg and 32.3 mL/min/kg, respectively. Also, the figures for the microsomal CLint at 1 μM in series [5] (setting [10]) and in series [5] (setting [11]) were 3.06 µL/min/mg and 2.76 µL/min/mg, respectively. Further, in series [6], the Papp A→B at 90 min, 1 μM stood at 12.5 ×10⁻⁶ cm/s. The compound further registered a Papp B→A at 90 min, 1 μM in series [6] of 25.6 ×10⁻⁶ cm/s. For the same compound, the results for the recovery at 90 min, 1 μM in series [6] (read-out: Recovery A to B) and in series [6] (read-out: Recovery B to A) were 93% and 94%, respectively. Further, the “% of Total (integrated MS peak areas), Human Hepatocytes” value in [7] (setting [14]) is recorded as 72.2%. Besides, the “% of Total (integrated MS peak areas), Human Hepatocytes + Hydralazine” value in series [7] (setting [14]) is 90.9%. The same compound had a hepatocyte CLint at 1 μM in series [9] of 12.7 µL/min/1e6 cells.
